# Patent US20210137883A1, “ANTI-NEOPLASTIC COMPOUNDS AND METHODS TARGETING QSOX1” (ARIZONA BOARD OF REGENTS ON BEHALF OF ARIZONA STATE …, priority 2015, published 2021)
# “Also recorded” adds a separate entry of the source.
# Experiments:
# [1] = system: UOK117 renal cell carcinoma xenografts; test: UOK117 renal cell carcinoma xenografts in nude mice; assay type: in vivo; settings: oral lavage 20 mg/kg/day from day 7, compared to vehicle-treated and untreated mice, FIG. 14
# Procedure: FIG. 14. […] Mice were inoculated with 1 million tumor cells in the hind flank. Treatment was started on day 7 by oral lavage at 20 mg/kg/day.
# [2] = system: MIAPaCa2 pancreatic tumor cells; test: Boyden chamber invasion through Matrigel, MIAPaCa2; assay type: cell-based; settings: FIG. 13
# [3] = molecular target: T1, recombinant QSOX1 (Homo sapiens, UniProt O00391); test: Fluorogenic HTS assay for QSOX1 inhibitors (H2O2 detection, RNAse A substrate); assay type: biochemical; settings: library screen with recombinant QSOX1
# T1 construct: made in house
# T1 sequence (O00391 30-747): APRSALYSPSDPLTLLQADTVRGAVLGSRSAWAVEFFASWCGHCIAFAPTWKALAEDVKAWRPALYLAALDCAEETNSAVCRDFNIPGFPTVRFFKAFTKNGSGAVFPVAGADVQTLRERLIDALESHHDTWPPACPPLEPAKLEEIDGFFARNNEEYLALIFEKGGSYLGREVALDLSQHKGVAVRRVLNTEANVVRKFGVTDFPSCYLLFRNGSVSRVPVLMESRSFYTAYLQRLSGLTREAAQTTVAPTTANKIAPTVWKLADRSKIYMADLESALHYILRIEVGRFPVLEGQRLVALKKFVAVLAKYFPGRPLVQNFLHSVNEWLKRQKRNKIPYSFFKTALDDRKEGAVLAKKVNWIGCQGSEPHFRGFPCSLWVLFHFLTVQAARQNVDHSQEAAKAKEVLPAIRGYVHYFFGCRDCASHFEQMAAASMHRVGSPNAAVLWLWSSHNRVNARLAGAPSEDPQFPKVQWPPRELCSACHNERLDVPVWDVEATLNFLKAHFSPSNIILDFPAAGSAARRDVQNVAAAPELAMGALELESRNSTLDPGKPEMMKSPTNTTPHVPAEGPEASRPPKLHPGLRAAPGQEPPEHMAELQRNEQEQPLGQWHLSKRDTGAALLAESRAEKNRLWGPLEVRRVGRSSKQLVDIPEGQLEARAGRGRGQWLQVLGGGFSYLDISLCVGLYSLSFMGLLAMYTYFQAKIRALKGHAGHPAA
# Procedure: FIG. 7. An in vitro assay to screen for QSOX1 inhibitors; Fluorogenic assay (also can be HTS). Enzymatically active recombinant QSOX1 is incubated with individual compounds in individual wells of a 384 well plate. […] Therefore, no fluorescence is observed.
# In screening for inhibitors, recombinant QSOX1 was produced and tested in fluorogenic assays to make sure it was active. The recombinant enzyme then was sent to the Sanford Burnham Institute for use in the same/similar assay to screen libraries for chemical compounds that inhibit the enzymatic activity of QSOX1.
# A peptide was identified in plasma from pancreatic cancer patients that mapped back to the QSOX1 parent protein (FIG. 1, prior art). […] A high throughput screening assay (HTS) was employed to screen a library of chemical compounds (50,000 compounds). The assay detects H2O2 produced by QSOX1 when it is enzymatically active (FIG. 7). Inhibition of the enzymatic activity of QSOX1 (with a chemical compound) suppresses H2O2 production, decreasing fluorescent or bioluminescent signal in the assay.
# [4] = system: myeloma cell lines; test: MTT assay on myeloma cell lines; assay type: cell-based; settings: 2-fold serial dilutions, at higher doses, FIG. 15
# Procedure: FIG. 15. MTT assay results from exposure of myeloma cell lines to SBI-183. Assay conditions: 25,000 cells per well were plated in a 96-well flat-bottom plate. 2-fold serial dilutions of SBI-183 were added to each well. % cell viability was calculated using the following formula: cmpd+cells/vehicle+cells*100%.
# [5] = system: 786-O; test: Detection of laminin-α4 deposition with anti-LAMA4 antibody in kidney cancer cells; assay type: cell-based; settings: 15 uM SBI-183; 786-O kidney cancer cells; FIG. 12
# Procedure: FIG. 12. 786-O Detection of laminin-α4 using anti-LAMA4 antibody in kidney cancer cells after incubation with 15uM SBI-183. […] Secondary alone indicates the goat anti-mouse antibody that was used to detect binding of anti-LAMA4.
# [6] = system: 786-O cells; test: Boyden chamber invasion through Matrigel, 786-O kidney cancer cells; assay type: cell-based; settings: dose-dependent; FIG. 11
# From the text: FIG. 11. Effect of Compound SBI-0143183 on Kidney cancer invasion through Matrigel (786-0).
# [7] = system: MCF-10A breast cancer cell lines containing mutant p53; test: Boyden chamber invasion through Matrigel, MCF-10A p53 breast cell lines; assay type: cell-based; settings: FIG. 13
# From the text: FIG. 13. […] P530E is MCF-10A non-malignant breast cell line containing wild type (non-mutated) p53. R248W, R273C and Y220C are three different p53 mutants expressed in MCF-10A breast cells.
smiles,measurement,setting,value
"COc1cccc(C(=O)Nc2ccc(N3CCCC3)cc2)c1 [SBI-183, 3-methoxy-N-[4-(1-pyrrolidinyl)phenyl]benzamide]",growth of UOK117 renal cell carcinoma xenografts,[1],suppresses the growth
same,invasion through Matrigel of MIAPaCa2 pancreatic tumor cells,[2],suppresses invasion
same,inhibition of the enzymatic activity of QSOX1,[3],inhibitor
same,cell viability (MTT),[4],decreased viability
same,deposition of laminin-α4 into the extracellular matrix,[5],not deposited; also recorded: inhibits deposition
same,invasion of 786-O cells through Matrigel,[6],suppressed invasion
same,"invasion through Matrigel of MCF-10A breast cell lines (p53 overexpress and mutant p53 R248W, R273C, Y220C)",[7],suppresses invasion
